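Briefly, cells in 96-well plates were exposed to five compound concentrations for 48 h, and endpoints were estimated by linear interpolation. GI50 marks 50% less growth. TGI: concentration producing complete growth inhibition.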
Experiments:
Assay in all cases: growth of human tumour cells (NCI), 48 h
MCF7 breast = tested on: MCF7 breast
MDA-MB-231 breast = tested on: MDA-MB-231 breast
PC-3 prostate = tested on: PC-3 prostate

Compound	GI50 (MCF7 breast) [µM]	TGI (MCF7 breast) [µM]	GI50 (MDA-MB-231 breast) [µM]	TGI (MDA-MB-231 breast) [µM]	GI50 (PC-3 prostate) [µM]	TGI (PC-3 prostate) [µM]
CCn1cnc2c(Nc3cccc(Cl)c3)nc(N[C@@H]3CCCC[C@@H]3N)nc21	0.824	3.23	1.83	5.37	1.3	3.36
COC1=CC(c2ccc[nH]2)=N/C1=C\c1[nH]c(C)c(C(=O)CCCCC(=O)Nc2ccccc2)c1C	1.37	2.75	0.396	1.95	1.15	2.43
CCCc1nc2c(C)cc(-c3nc4ccccc4n3C)cc2n1Cc1ccc(-c2ccccc2C(=O)O)cc1	31.9	> 100	30.3	> 100	29.4	> 100
CCOC(=O)c1sc(=S)c2c(C(=O)OCC)c(C(=O)OCC)sc2c1C(=O)OCC	15.2	29.9	14.6	32.7	8.17	21.2
COC(=O)CCC/C=C\C[C@H]1C=CC(=O)/C1=C/C[C@@H](O)C/C=C\CC(F)(F)F	0.393	10.3	2.72	7.41	2.79	7.31
CCOC(=O)c1sc(Nc2ccc(Cl)cc2)nc1C	1.64	6.14	1.08	2.61	1.37	3.42
COc1ccc2c(c1)CC[C@@H]1[C@@H]2CC[C@]2(C)C(c3ccco3)=C(C=O)C[C@@H]12	8.2	> 100	10.8	30.7	5.66	37.3
CSc1nc2sc3cc(Cl)ccc3n2c(=N)c1C#N	3.31	> 100	> 85.7	> 100	42.2	> 100
COc1ccc(-c2ccc(C3CC(c4ccc(Cl)cc4)=NN3)o2)c([N+](=O)[O-])c1 (centres undefined)	> 100	> 100	> 100	> 100	> 100	> 100
NS(=O)(=O)c1ccc(CCN=C=S)cc1	0.808	3.13	2.03	4.4	2.03	5.23
COc1ccc(/C=C/c2n[nH]c3ccc(N4CCOC4=O)cc23)cc1	1.93	40.3	2.98	9.8	3.22	11.2
Nc1ccc(/C=N/Nc2ccnc3c(N)cccc23)c2cccnc12	1.48	3.12	1.6	3.15		
C=C1C(=O)O[C@H]2[C@H]1CC/C(COC(=O)NCc1c[nH]c3ccc(Cl)cc13)=C\CC[C@@]1(C)O[C@@H]21			1.66	3.3	1.52	3.08
Cc1[nH]c(=O)[nH]c(=O)c1CO	> 100	> 100	> 100	> 100	> 100	> 100
COc1ccc([N+](=O)[O-])c(S(=O)(=O)c2ccc(Cl)cc2)n1	2.24	7.29	2.83	7.43	17.3	33.8
C[C@H]1[C@H](C)CC[C@]2(C(=O)O)CC[C@]3(C)C(=CC[C@@H]4[C@@]5(C)C/C(=C/c6ccco6)C(=O)C(C)(C)[C@@H]5CC[C@]43C)[C@H]12	3.17	13	6.72	24.1	2.89	13.3
COC(=O)C1=C(C(=O)OC)C23C=C(C)C1C2=C(C)C1(CC1)[C@@](C)(O)C3=O (some centres undefined)	0.346	> 100	0.309	1.56	0.386	32.9
Cn1cc(C2=C(c3cn(CCN)c4ccccc34)C(=O)NC2=O)c2ccccc21	3.72	> 23.4	6	19.2	5.14	> 19.7
COC1=CC(c2ccc[nH]2)=N/C1=C\c1ccc[nH]1	0.346	11.9	0.11	14.6	0.158	13.6
COc1cc(-c2cc(-c3nc4ccc(Cl)cc4[nH]3)[nH]n2)cc(OC)c1OC	2.17	7.75	3.94	24.3	2.47	8.29
Nc1c(C(=O)Nc2ccccc2Cl)sc2nc3c(cc12)CCCCCC3	0.896	16.7	2.24	14.1	15.4	> 100
N#Cc1ccnc(N2C(=O)CC[C@H]2C(=O)N(c2cncc(F)c2)[C@H](C(=O)NC2CC(F)(F)C2)c2ccccc2Cl)c1	27	> 100	50.7	> 100	> 100	> 100
COc1ccccc1CNCCCN1C(=O)c2ccc3c4c(ccc(c24)C1=O)C(=O)N(CCCNCCCN)C3=O	0.123	2.43	1.41	9.72	0.653	4.61

Reference: PubChem BioAssay (NCI)
